Measured values published in US9247759B2, “Identification of human T2R receptors that respond to bitter compounds that elicit the bitter taste in compositions, and the use thereof in assays to identify compounds that inhibit (block) bitter taste in compositions and use thereof” (SENOMYX, INC., priority 2007, dated 2016).
Read-outs that look alike come from different tables or passages of the source.

Key:
hT2R14 [1] = target: T1, hT2R14 (Homo sapiens (Human), UniProt Q9NYV8); experiment: hT2R14 antagonist high-throughput FLIPR assay, stable cell line with G16g44, agonist aristolochic acid; assay type: cell-based
Procedure, shortened: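 HEK293 cells stably expressing hT2R14 with chimeric G16g44 were stimulated with aristolochic acid (3 μM), giving 70-80% of maximal receptor activity. Test compounds were added together with the agonist, and antagonism was read as fluorescent calcium signal on FLIPR.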

hT2R3 = hT2R3 (Homo sapiens (Human), UniProt Q9NYW6); experiment: hT2R panel inhibition, transient HEK293 G16g44, agonist Chloroquine pH6.5 50 μM; assay type: cell-based; conditions: HEK293, compound at 25 μM
Procedure, shortened: (§1)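 The test compound's selectivity was profiled by challenging each transiently expressed human T2R with its activating bitter ligand at an EC80 concentration, inhibition being the reduction of receptor signalling it produced.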

hT2R5 = hT2R5 (Homo sapiens (Human), UniProt Q9NYW4); experiment: hT2R panel inhibition, transient HEK293 G16g44, agonist Picoline 10 mM; assay type: cell-based; conditions: HEK293, compound at 25 μM
Procedure, shortened: as §1

hT2R10 = hT2R10 (Homo sapiens (Human), UniProt Q9NYW0); experiment: hT2R panel inhibition, transient HEK293 G16g44, agonist Strychnine 50 μM; assay type: cell-based; conditions: HEK293, read-out: screening result against bitter receptor 10, compound at 25 μM; receptor activated to EC80 with the corresponding agonist
hT2R13 = hT2R13 (Homo sapiens (Human), UniProt Q9NYV9); experiment: hT2R panel inhibition, transient HEK293 G16g44, agonist Oxyphenonium 1 mM; assay type: cell-based; conditions: HEK293, compound at 25 μM
Description: Specifically, in order to evaluate the inhibitory selectivity of the Compound C compound, this compound was tested against 22 human T2Rs which were deorphaned by Senomyx. These receptors and the bitter ligands that activate these human T2Rs are reported in earlier patent applications which are incorporated by reference herein. These 22 human T2Rs are hT2R1, 3, 4, 5, 7, 8, 9, 10, 13, 14, 16, 44, 51, 54, 55, 61, 63, 64, 65, 67, 71 and 75. The amino acid and nucleic acid sequences of all of these T2Rs may be found in these earlier patent applications. These human T2Rs were each individually transiently transfected into HEK293 cells that stably express the promiscuous G protein G16g44 and functional assays were effected using these receptors as disclosed in these same patent applications. […] The ligands were used at EC80 concentration levels. The list of bitter ligands utilized and the tested ligand concentrations are contained in Table 5 of this example.
Relating to the foregoing, FIG. 5 contains experimental results wherein Compound C was tested with different agonist compounds. The inhibition activity is represented by the reduction of receptor activity in the presence of Compound C. […] These 13 hT2Rs are hT2R3, 7, 10, 14, 16, 44, 51, 55, 61, 63, 64, 65, and 71.

hT2R14 [2] = target: T1, hT2R14; experiment: hT2R panel inhibition, transient HEK293 G16g44, agonist Aristolochic Acid 2 μM; assay type: cell-based; conditions: HEK293, compound at 25 μM
Procedure, shortened: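 Each hT2R was transiently transfected into HEK293 cells stably expressing G16g44 and assayed functionally for inhibition of agonist response. Agonists were applied at EC80: andrographolide at 0.5 mM for hT2R8 and aristolochic acid at 2 μM for hT2R14.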

hT2R16 = hT2R16 (Homo sapiens (Human), UniProt Q9NYV7); experiment: hT2R panel inhibition, transient HEK293 G16g44, agonist Salicin 1 mM; assay type: cell-based; conditions: HEK293, compound at 25 μM; receptor activated to EC80 with the corresponding agonist; read-out: screening result against bitter receptor 16
Procedure, shortened: as §1

hT2R44 = experiment: hT2R panel inhibition, transient HEK293 G16g44, agonist Denatonium 0.5 μM; assay type: cell-based, human; conditions: compound at 25 μM; for screening result against bitter receptor 44: receptor activated to EC80 with the corresponding agonist; for inhibition of bitter receptor 44: receptor activated to EC80 with agonist
Procedure, shortened: as §1

hT2R54 = experiment: hT2R panel inhibition, transient HEK293 G16g44, agonist Ranitidine 5 mM; assay type: cell-based, human; conditions: compound at 25 μM; receptor activated to EC80 with the corresponding agonist
Procedure, shortened: as §1

hT2R55 = experiment: hT2R panel inhibition, transient HEK293 G16g44, agonist Cinchonine 150 μM; assay type: cell-based, human; conditions: compound at 25 μM; receptor activated to EC80 with the corresponding agonist
Procedure, shortened: as §1

hT2R61 = hT2R61 (Homo sapiens (Human), UniProt P59537); experiment: hT2R panel inhibition, transient HEK293 G16g44, agonist Aristolochic Acid 25 nM; assay type: cell-based; conditions: HEK293, compound at 25 μM
Procedure, shortened: as §1

hT2R63 = experiment: hT2R panel inhibition, transient HEK293 G16g44, agonist Caffeine 1 mM or Andrographolide 100 μM; assay type: cell-based, human; conditions: compound at 25 μM; for screening result against bitter receptor 63: receptor activated to EC80 with the corresponding agonist
Procedure, shortened: as §1

hT2R64 = hT2R64 (Homo sapiens (Human), UniProt P59538); experiment: hT2R panel inhibition, transient HEK293 G16g44, agonist Aristolochic Acid 1 μM; assay type: cell-based; conditions: HEK293, compound at 25 μM
Procedure, shortened: as §1

hT2R71 = hT2R71 (Homo sapiens (Human), UniProt P59536); experiment: hT2R panel inhibition, transient HEK293 G16g44, agonist Picric Acid 10 μM; assay type: cell-based; conditions: HEK293, compound at 25 μM
Procedure, shortened: as §1

hT2R7 = hT2R7 (Homo sapiens (Human), UniProt Q9NYW3); experiment: hT2R panel inhibition, transient HEK293 G16g44, agonist Chloroquine pH6.5 10 mM; assay type: cell-based; conditions: HEK293, compound at 25 μM
Procedure, shortened: as §1

hT2R51 = hT2R51 (Homo sapiens (Human), UniProt P59533); experiment: hT2R panel inhibition, transient HEK293 G16g44, agonist Prop 2.5 μM; assay type: cell-based; conditions: HEK293, compound at 25 μM; receptor activated to EC80 with the corresponding agonist; read-out: screening result against bitter receptor 51
Procedure, shortened: as §1

hT2R65 = experiment: hT2R panel inhibition, transient HEK293 G16g44, agonist Oleuropein 1 mM; assay type: cell-based, human; conditions: compound at 25 μM; receptor activated to EC80 with the corresponding agonist
Procedure, shortened: as §1

hT2R67 = experiment: hT2R panel inhibition, transient HEK293 G16g44, agonist Andrographolide 5 μM; assay type: cell-based, human; conditions: compound at 25 μM; receptor activated to EC80 with the corresponding agonist
Procedure, shortened: as §1

hT2R4 = hT2R4 (Homo sapiens (Human), UniProt Q9NYW5); experiment: hT2R panel inhibition, transient HEK293 G16g44, agonist Chloroquine pH6.5 5 mM; assay type: cell-based; conditions: HEK293, compound at 25 μM; receptor activated to EC80 with the corresponding agonist; class symbols; read-out: screening result against bitter receptor 4
Procedure, shortened: as §1

hT2R9 = hT2R9 (Homo sapiens (Human), UniProt Q9NYW1); experiment: hT2R panel inhibition, transient HEK293 G16g44, agonist Ofloxacin 1 mM; assay type: cell-based; conditions: HEK293, compound at 25 μM; receptor activated to EC80 with the corresponding agonist; read-out: screening result against bitter receptor 9
Procedure, shortened: as §1

hT2R75 = hT2R75 (Homo sapiens (Human), UniProt P59540); experiment: hT2R panel inhibition, transient HEK293 G16g44, agonist Strychnine 1 μM; assay type: cell-based; conditions: HEK293, read-out: screening result against bitter receptor 75, compound at 25 μM; receptor activated to EC80 with the corresponding agonist
[3] = read-out: IC50 on hT2R14 bitter receptor
[4] = receptor activated to EC80 with the corresponding agonist, read-out: screening result against bitter receptor 3
[5] = receptor activated to EC80 with the corresponding agonist, read-out: screening result against bitter receptor 5
[6] = receptor activated to EC80 with the corresponding agonist, read-out: screening result against bitter receptor 13
[7] = receptor activated to EC80 with the corresponding agonist, read-out: screening result against bitter receptor 14
[8] = receptor activated to EC80 with the corresponding agonist, read-out: screening result against bitter receptor 61
[9] = receptor activated to EC80 with the corresponding agonist, read-out: screening result against bitter receptor 64
[10] = receptor activated to EC80 with the corresponding agonist, read-out: screening result against bitter receptor 71
[11] = receptor activated to EC80 with the corresponding agonist, read-out: screening result against bitter receptor 7
[12] = receptor activated to EC80 with agonist, read-out: inhibition of bitter receptor 13
[13] = receptor activated to EC80 with agonist, read-out: inhibition of bitter receptor 14
[14] = receptor activated to EC80 with agonist, read-out: inhibition of bitter receptor 71
[15] = receptor activated to EC80 with agonist, read-out: inhibition of bitter receptor 5
[16] = receptor activated to EC80 with agonist, read-out: inhibition of bitter receptor 7
[17] = receptor activated to EC80 with agonist, read-out: inhibition of bitter receptor 61

hT2R16, sequence (Q9NYV7 whole entry): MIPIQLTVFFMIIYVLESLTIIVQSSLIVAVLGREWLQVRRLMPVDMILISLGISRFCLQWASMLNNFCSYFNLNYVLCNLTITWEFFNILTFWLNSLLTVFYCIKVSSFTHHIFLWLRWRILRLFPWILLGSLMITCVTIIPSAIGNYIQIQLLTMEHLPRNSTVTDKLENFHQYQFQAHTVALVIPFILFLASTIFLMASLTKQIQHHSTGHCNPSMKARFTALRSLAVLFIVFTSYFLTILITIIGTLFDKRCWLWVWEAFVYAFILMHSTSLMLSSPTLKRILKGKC
hT2R61, sequence (P59537 whole entry): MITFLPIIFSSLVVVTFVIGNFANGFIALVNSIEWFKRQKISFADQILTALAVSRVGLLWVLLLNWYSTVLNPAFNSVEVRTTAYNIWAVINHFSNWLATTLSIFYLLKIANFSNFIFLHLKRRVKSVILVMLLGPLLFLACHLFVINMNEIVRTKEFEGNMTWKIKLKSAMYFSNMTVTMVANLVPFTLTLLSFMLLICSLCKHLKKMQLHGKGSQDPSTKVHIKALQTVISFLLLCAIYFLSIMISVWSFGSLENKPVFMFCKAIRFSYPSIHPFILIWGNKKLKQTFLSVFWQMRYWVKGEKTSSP
hT2R3, sequence (Q9NYW6 whole entry): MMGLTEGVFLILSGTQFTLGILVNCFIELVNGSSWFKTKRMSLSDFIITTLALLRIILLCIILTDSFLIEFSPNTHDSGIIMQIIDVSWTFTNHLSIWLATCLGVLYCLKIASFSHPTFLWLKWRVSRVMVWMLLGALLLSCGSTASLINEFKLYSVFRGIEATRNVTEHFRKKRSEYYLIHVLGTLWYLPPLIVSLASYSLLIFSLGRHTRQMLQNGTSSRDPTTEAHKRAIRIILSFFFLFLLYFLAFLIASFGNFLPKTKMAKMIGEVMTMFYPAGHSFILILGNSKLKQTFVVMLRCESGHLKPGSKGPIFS
hT2R7, sequence (Q9NYW3 whole entry): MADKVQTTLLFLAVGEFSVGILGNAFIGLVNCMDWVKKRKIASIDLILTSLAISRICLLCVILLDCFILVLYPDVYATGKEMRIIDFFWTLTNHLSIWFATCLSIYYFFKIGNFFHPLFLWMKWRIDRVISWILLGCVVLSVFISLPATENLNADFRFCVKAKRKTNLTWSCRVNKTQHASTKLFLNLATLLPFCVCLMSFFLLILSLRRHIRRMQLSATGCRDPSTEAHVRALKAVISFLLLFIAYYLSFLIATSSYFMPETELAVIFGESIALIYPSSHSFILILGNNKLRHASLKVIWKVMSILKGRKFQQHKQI
hT2R64, sequence (P59538 whole entry): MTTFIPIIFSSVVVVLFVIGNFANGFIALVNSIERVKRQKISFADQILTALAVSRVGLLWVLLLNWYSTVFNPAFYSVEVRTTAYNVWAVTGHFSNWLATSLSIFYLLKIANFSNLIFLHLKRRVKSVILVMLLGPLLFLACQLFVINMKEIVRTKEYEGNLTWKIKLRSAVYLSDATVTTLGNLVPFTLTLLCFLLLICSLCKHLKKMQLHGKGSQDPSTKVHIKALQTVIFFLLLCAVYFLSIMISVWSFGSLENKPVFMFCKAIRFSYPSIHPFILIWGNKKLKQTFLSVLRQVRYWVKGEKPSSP
hT2R71, sequence (P59536 whole entry): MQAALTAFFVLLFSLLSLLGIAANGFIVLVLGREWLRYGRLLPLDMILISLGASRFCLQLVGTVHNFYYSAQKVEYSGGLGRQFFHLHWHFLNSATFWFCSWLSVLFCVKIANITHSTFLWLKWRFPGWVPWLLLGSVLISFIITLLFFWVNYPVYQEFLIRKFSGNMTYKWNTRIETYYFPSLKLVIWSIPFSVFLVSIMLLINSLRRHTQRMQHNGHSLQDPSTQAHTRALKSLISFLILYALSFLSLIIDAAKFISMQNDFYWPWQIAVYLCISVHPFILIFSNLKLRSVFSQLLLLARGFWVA
hT2R5, sequence (Q9NYW4 whole entry): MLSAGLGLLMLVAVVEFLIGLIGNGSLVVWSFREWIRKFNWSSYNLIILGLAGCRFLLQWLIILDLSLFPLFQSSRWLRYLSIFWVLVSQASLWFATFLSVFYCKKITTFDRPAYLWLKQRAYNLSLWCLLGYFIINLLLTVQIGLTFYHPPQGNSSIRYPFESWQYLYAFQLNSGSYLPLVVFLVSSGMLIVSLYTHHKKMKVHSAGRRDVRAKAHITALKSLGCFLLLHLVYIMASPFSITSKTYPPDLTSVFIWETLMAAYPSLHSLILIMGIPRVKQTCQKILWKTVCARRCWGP
T1 sequence (Q9NYV8 whole entry): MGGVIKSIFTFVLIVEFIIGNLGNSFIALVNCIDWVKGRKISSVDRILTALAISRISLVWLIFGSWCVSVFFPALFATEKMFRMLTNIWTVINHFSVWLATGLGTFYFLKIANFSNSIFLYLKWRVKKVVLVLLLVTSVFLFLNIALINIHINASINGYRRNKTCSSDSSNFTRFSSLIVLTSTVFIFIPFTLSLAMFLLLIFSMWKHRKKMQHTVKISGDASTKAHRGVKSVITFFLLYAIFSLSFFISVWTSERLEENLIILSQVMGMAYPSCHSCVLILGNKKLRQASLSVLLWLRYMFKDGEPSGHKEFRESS
hT2R10, sequence (Q9NYW0 whole entry): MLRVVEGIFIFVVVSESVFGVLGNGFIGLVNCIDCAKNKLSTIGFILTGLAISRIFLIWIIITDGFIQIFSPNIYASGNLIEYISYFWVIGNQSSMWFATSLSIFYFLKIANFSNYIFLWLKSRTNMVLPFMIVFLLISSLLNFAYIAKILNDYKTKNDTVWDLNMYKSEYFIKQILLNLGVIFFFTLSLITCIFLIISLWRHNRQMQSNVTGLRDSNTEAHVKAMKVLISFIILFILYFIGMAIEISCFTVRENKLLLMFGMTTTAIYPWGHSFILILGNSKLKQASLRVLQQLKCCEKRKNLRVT
hT2R13, sequence (Q9NYV9 whole entry): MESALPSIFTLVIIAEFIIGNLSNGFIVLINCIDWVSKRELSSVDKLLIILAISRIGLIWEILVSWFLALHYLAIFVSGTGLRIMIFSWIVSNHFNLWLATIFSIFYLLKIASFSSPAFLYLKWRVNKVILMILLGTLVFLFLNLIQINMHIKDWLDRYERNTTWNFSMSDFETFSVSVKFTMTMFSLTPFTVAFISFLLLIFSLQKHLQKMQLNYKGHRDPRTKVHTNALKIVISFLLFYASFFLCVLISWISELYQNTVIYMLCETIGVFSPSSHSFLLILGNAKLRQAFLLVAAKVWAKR
hT2R51, sequence (P59533 whole entry): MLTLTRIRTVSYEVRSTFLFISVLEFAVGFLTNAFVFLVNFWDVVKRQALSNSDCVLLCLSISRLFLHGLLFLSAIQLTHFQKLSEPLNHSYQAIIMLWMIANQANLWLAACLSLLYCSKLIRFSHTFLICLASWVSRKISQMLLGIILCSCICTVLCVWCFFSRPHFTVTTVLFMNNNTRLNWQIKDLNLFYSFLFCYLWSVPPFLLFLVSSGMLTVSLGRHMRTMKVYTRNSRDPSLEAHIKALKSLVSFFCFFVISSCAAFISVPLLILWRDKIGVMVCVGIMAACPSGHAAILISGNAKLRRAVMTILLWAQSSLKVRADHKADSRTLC
hT2R4, sequence (Q9NYW5 whole entry): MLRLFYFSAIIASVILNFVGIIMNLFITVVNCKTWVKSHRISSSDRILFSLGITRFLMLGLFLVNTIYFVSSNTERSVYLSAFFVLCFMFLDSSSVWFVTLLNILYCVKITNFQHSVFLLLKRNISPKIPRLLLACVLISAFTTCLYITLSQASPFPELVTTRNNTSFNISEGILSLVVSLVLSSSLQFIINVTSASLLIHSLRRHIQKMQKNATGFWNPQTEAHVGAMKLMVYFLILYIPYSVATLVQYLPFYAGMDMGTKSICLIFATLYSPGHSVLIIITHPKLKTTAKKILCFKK
hT2R75, sequence (P59540 whole entry): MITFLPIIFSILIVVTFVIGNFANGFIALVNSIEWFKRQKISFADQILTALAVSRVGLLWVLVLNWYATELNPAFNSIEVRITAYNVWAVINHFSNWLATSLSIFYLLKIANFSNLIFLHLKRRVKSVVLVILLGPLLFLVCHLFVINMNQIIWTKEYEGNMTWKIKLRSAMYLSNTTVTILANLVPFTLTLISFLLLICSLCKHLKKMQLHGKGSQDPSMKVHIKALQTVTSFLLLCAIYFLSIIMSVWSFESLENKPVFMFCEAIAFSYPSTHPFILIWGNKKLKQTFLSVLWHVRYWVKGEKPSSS
hT2R9, sequence (Q9NYW1 whole entry): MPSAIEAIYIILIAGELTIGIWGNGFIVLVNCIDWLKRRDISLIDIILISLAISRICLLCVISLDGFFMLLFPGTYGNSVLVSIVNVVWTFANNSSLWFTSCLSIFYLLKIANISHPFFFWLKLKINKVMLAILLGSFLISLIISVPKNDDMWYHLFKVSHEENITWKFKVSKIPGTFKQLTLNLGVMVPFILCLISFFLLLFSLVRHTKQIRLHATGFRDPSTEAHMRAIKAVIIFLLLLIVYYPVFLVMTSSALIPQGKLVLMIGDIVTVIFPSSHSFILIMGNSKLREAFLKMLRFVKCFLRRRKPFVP

SMILES	IC50 (hT2R14 [1]; [3]) [µM]	inhibition at 25 µM (hT2R3; [4]) [%]	inhibition at 25 µM (hT2R5; [5]) [%]	inhibition at 25 µM (hT2R10) [%]	inhibition at 25 µM (hT2R13; [6]) [%]	inhibition at 25 µM (hT2R14 [2]; [7]) [%]	inhibition at 25 µM (hT2R16) [%]	screening result against bitter receptor 44 (hT2R44)	screening result against bitter receptor 54 (hT2R54)	screening result against bitter receptor 55 (hT2R55)	inhibition at 25 µM (hT2R61; [8]) [%]	screening result against bitter receptor 63 (hT2R63)	inhibition at 25 µM (hT2R64; [9]) [%]	inhibition at 25 µM (hT2R71; [10]) [%]	inhibition at 25 µM (hT2R7; [11]) [%]	inhibition at 25 µM (hT2R51) [%]	screening result against bitter receptor 65 (hT2R65)	screening result against bitter receptor 67 (hT2R67)	inhibition at 25 µM (hT2R13; [12]) [%]	inhibition at 25 µM (hT2R14 [2]; [13]) [%]	further results
COc1ccc(CN(Cc2ccc(OC)c(F)c2)S(=O)(=O)c2ccc(C(=O)O)cc2)cc1 [Example 5-41, 4-(N-(3-fluoro-4-methoxybenzyl)-N-(4-methoxybenzyl)sulfamoyl)-benzoic acid]	1.11	40 to 60	20 to 40	40 to 60	20 to 40	> 80	20 to 40	+++ (60% to 80% inhibition = +++)	+ (20% to 40% inhibition = +)	+++ (60% to 80% inhibition = +++)	> 80	++++ (80% or greater inhibition = ++++)	60 to 80	40 to 60							
COc1ccc(CN(Cc2ccc(F)c(OC)c2)S(=O)(=O)c2ccc(C(=O)O)cc2)cc1 [Example 5-50, 4-(N-(4-fluoro-3-methoxybenzyl)-N-(4-methoxybenzyl)sulfamoyl)-benzoic acid]	1.65	40 to 60	20 to 40	20 to 40	20 to 40	> 80	40 to 60	+++ (60% to 80% inhibition = +++)		++++ (80% or greater inhibition = ++++)	> 80	++++ (80% or greater inhibition = ++++)	60 to 80	60 to 80	20 to 40	20 to 40	++ (40% to 60% inhibition = ++)	++ (40% to 60% inhibition = ++)			
O=C(O)c1ccc(CN(Cc2cccc(F)c2)S(=O)(=O)c2ccccc2)cc1 [Example 5-104, 4-((N-(3-fluorobenzyl)phenylsulfonamido)methyl)-benzoic acid]		40 to 60	40 to 60	40 to 60		> 80	20 to 40	+++ (60% to 80% inhibition = +++)	+ (20% to 40% inhibition = +)	+++ (60% to 80% inhibition = +++)	> 80	++ (40% to 60% inhibition = ++)	> 80	60 to 80	40 to 60	20 to 40	+++ (60% to 80% inhibition = +++)	++ (40% to 60% inhibition = ++)			IC50 (hT2R14 [1]; Table C, read-out: hT2R14 IC50): 0.406 µM; inhibition at 25 µM (hT2R4): 40 to 60%; inhibition at 25 µM (hT2R9): 20 to 40%; inhibition at 25 µM (hT2R75): 40 to 60%
Cn1c(=O)c(=O)n(C)c2cc(S(=O)(=O)Nc3ccc4c(c3)OCCO4)ccc21 [Example 6-3, N-(2,3-dihydrobenzo[b][1,4]dioxin-6-yl)-1,4-dimethyl-2,3-dioxo-1,2,3,4-tetrahydroquinoxaline-6-sulfonamide]	7.71																		20 to 40	> 80	inhibition of bitter receptor 44 (hT2R44): + (20% to 40% inhibition = +); inhibition of bitter receptor 63 (hT2R63; receptor activated to EC80 with agonist): + (20% to 40% inhibition = +); inhibition at 25 µM (hT2R71; [14]): 20 to 40%
Cc1cc2c(cc1S(=O)(=O)Nc1ccc(F)cc1)n(C)c(=O)c(=O)n2C [Example 6-10, N-(4-fluorophenyl)-1,4,7-trimethyl-2,3-dioxo-1,2,3,4-tetrahydroquinoxaline-6-sulfonamide]																			40 to 60	40 to 60	IC50 (hT2R14 [1]; Table D, read-out: hT2R14 IC50): 12.6 µM; inhibition at 25 µM (hT2R3; receptor activated to EC80 with agonist, read-out: inhibition of bitter receptor 3): 20 to 40%; inhibition at 25 µM (hT2R5; [15]): 20 to 40%; inhibition at 25 µM (hT2R7; [16]): 20 to 40%; inhibition of bitter receptor 44 (hT2R44): + (20% to 40% inhibition = +); inhibition at 25 µM (hT2R61; [17]): 20 to 40%; inhibition at 25 µM (hT2R64; receptor activated to EC80 with agonist, read-out: inhibition of bitter receptor 64): 20 to 40%
CCN(C(=O)CN(C)S(=O)(=O)c1ccc2c(c1)n(C)c(=O)c(=O)n2C)c1cccc(C)c1 [Example 6-11, N-ethyl-N-m-tolyl-2-(N,1,4-trimethyl-2,3-dioxo-1,2,3,4-tetrahydroquinoxaline-6-sulfonamido)acetamide]																			40 to 60	20 to 40	IC50 (hT2R14 [1]; Table D, read-out: hT2R14 IC50): 14.9 µM; inhibition at 25 µM (hT2R5; [15]): 20 to 40%; inhibition at 25 µM (hT2R7; [16]): 20 to 40%; inhibition at 25 µM (hT2R61; [17]): 20 to 40%; inhibition at 25 µM (hT2R71; [14]): 20 to 40%
